Bounds are passed on as bounds.

Experimental findings from patent US20230406860A1, “HETEROCYCLIC SPIRO COMPOUNDS AND METHODS OF USE” (AMGEN INC., priority 2020, published 2023) are described below.

The target of assay [1] is GDP-bound KRAS protein (aa 1-169), containing both G12C and C118A amino acid substitutions (Homo sapiens, UniProt P01116, C118A/G12C). Nature of the assay: Coupled nucleotide exchange assay (SOS-mediated, AlphaScreen). Format: biochemical. To be noted: 2 h compound pre-incubation; read-out: Avg 2 h Coupled exchange IC50. As for the experimental part: Coupled Nucleotide Exchange Assay:
For all subsequent steps, DTT was added to the reaction buffer at a final concentration of 1 mM. […] The assay plates were then read on a plate reader measuring luminescence signal. Signal intensity of compound-containing wells were normalized to DMSO control, and data were analyzed using a 4-parameter logistic model to calculate IC50 values.

Assay [2] has as its system MIA PaCa-2 (human pancreatic carcinoma) cells. Nature of the assay: Cell viability assay (CellTiter-Glo), MIA PaCa-2. Format: cell-based. To be noted: 72 h. As for the experimental part: (§1) MIA PaCa-2 (human pancreatic carcinoma; ATCC CRL-1420) or A549 (human lung carcinoma; ATCC CCL-185) cells were cultured in RPMI 1640 medium containing 10% fetal bovine serum and 1× penicillin/streptomycin/L-glutamine. Cells were seeded in 384-well plates at a density of 1.67E+04 cells/mL and incubated at 37° C., 5% CO2, overnight. Serially-diluted compound or DMSO was added to the cells, and plates were incubated at 37° C., 5% CO2 for 72 h. Cell viability was measured using a CellTiter-Glo® Luminescent Cell Viability Assay kit (Promega) according to the manufacturer's protocol. The luminescence signal of treated samples was normalized to DMSO control, and data were analyzed using a 4-parameter logistic model to calculate IC50 values.

Assay [3] has as its system A549 (human lung carcinoma) cells. Nature of the assay: Cell viability assay (CellTiter-Glo), A549. Format: cell-based. To be noted: 72 h. As for the experimental part: as §1

Chain of GDP-bound KRAS protein (aa 1-169), containing both G12C and C118A amino acid substitutions (P01116 1-169 isoform P01116-2 G12C/C118A): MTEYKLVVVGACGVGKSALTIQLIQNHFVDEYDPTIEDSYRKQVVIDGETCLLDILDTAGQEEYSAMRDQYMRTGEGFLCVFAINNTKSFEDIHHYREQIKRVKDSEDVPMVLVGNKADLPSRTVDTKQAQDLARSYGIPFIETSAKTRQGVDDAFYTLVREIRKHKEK

As to `C=CC(=O)N1CC2(CCN(c3nc(N[C@H](CC(=O)NC)CC(C)C)c4ccc(Cl)cc4n3)C2)C1` [Example 1-30, (3S)-3-((7-chloro-2-(2-(2-propenoyl)-2,6-diazaspiro[3.4]octan-6-yl)-4-quinazolinyl)amino)-N,5-dimethylhexanamide], the IC50 was determined as 265 nM in assay [1], 112 nM in assay [2] and 14600 nM in assay [3].
As to `C=CC(=O)N1CC2(CCN(c3nc4c(c(N[C@H](CC(=O)NC)CC(C)C)n3)OCCC4)C2)C1` [Example 1-31, (3S)-N,5-dimethyl-3-((2-(2-(2-propenoyl)-2,6-diazaspiro[3.4]octan-6-yl)-7,8-dihydro-6H-pyrano[3,2-d]pyrimidin-4-yl)amino)hexanamide], the 50% inhibitory concentration (IC50) in assay [1] is 428 nM; in assay [2] it was 261 nM; in assay [3] it was over 25000 nM.
For `C=CC(=O)N1CC2(CCN(c3nc(N[C@H](CC(=O)NC)CC(C)C)c4ncc(OC)cc4n3)C2)C1` [Example 1-42, (3S)-3-((7-methoxy-2-(2-(2-propenoyl)-2,6-diazaspiro[3.4]octan-6-yl)pyrido[3,2-d]pyrimidin-4-yl)amino)-N,5-dimethylhexanamide] the same measures were 22 nM, 296 nM and over 5000 nM.
Regarding `C=CC(=O)N1CC2(CCN(c3nc4c(c(N[C@@H](CC(C)C)Cn5cncn5)n3)CCC(C)(C)C4)C2)C1` [Example 1-45, 1-(6-(7,7-dimethyl-4-(((2S)-4-methyl-1-(1H-1,2,4-triazol-1-yl)-2-pentanyl)amino)-5,6,7,8-tetrahydro-2-quinazolinyl)-2,6-diazaspiro[3.4]octan-2-yl)-2-propen-1-one], the 50% inhibitory concentration (IC50) in assay [1] is 1510 nM; in assay [2] it was 985 nM; in assay [3] it was over 25000 nM.
As to `C=CC(=O)N1CC2(CCN(c3nc4c(c(N[C@H](Cc5ncc[nH]5)CC(C)C)n3)CCCC4)C2)C1` [Example 1-23, 1-(6-(4-(((2S)-1-(1H-imidazol-2-yl)-4-methyl-2-pentanyl)amino)-5,6,7,8-tetrahydro-2-quinazolinyl)-2,6-diazaspiro[3.4]octan-2-yl)-2-propen-1-one], the concentration for half-maximal inhibition (IC50) in assay [1] was 1160 nM; in assay [2], 2830 nM; in assay [3], over 5000 nM.
For `C=CC(=O)N1CC2(CCN(c3nc4c(c(N[C@H](Cc5nnc[nH]5)CC(C)C)n3)CCCC4)C2)C1` [Example 1-19, 1-(6-(4-(((2S)-4-methyl-1-(4H-1,2,4-triazol-3-yl)-2-pentanyl)amino)-5,6,7,8-tetrahydro-2-quinazolinyl)-2,6-diazaspiro[3.4]octan-2-yl)-2-propen-1-one] the same measures were 4160 nM, over 5000 nM and over 5000 nM.
As to `C=CC(=O)N1CC2(CCN(c3nc4c(c(N[C@H](Cc5cc(C)on5)CC(C)C)n3)CCC(C)(C)C4)C2)C1` [Example 1-53, 1-(6-(7,7-dimethyl-4-(((2S)-4-methyl-1-(5-methyl-1,2-oxazol-3-yl)-2-pentanyl)amino)-5,6,7,8-tetrahydro-2-quinazolinyl)-2,6-diazaspiro[3.4]octan-2-yl)-2-propen-1-one], the IC50 in assay [1] is 24 nM; in assay [2], 994 nM; in assay [3] it was over 5000 nM.
Regarding `C=CC(=O)N1CC2(C[C@H](CO)N(c3nc4c(c(N[C@H](CC(=O)NC)CC(C)C)n3)CCCC4)C2)C1` (single isomer, unassigned) [Example 1-24-1], the IC50 was 4580 nM in assay [1], 5990 nM in assay [2] and over 25000 nM in assay [3].
For `C=CC(=O)N1CC2(CCN(c3nc4c(c(N[C@H](CC(=O)NC)CC(C)C)n3)CCC(C)C4)C2)C1` (stereo partly drawn) [Example 1-3, (3S)-N,5-dimethyl-3-((7-methyl-2-(2-(2-propenoyl)-2,6-diazaspiro[3.4]octan-6-yl)-5,6,7,8-tetrahydro-4-quinazolinyl)amino)hexanamide] the same measures were 216 nM, 217 nM and 32600 nM.
For `C=CC(=O)N1CC2(C1)CN(c1nc(N[C@H](CC(=O)NC)CC(C)C)c3ccccc3n1)CC2F` (stereo partly drawn) [Example 1-27, (3S)-3-((2-(8-fluoro-2-(2-propenoyl)-2,6-diazaspiro[3.4]octan-6-yl)-4-quinazolinyl)amino)-N,5-dimethylhexanamide], the IC50 in assay [1] was 3490 nM; in assay [2], over 5000 nM; in assay [3], over 5000 nM.
On to `C=CC(=O)N1CC2(CCN(c3nc4c(c(N[C@@H](CC(C)C)Cn5ccnn5)n3)CCC(C)(C)C4)C2)C1` [Example 1-47, 1-(6-(7,7-dimethyl-4-(((2S)-4-methyl-1-(1H-1,2,3-triazol-1-yl)-2-pentanyl)amino)-5,6,7,8-tetrahydro-2H-quinazolinyl)-2,6-diazaspiro[3.4]octan-2-yl)-2-propen-1-one], for which the results for the IC50 in assay [2] and in assay [3] were 485 nM and 14100 nM, respectively.
As for `C=CC(=O)N1CC2(CCN(c3nc4c(c(N[C@H](Cc5c[nH]nn5)CC(C)C)n3)CCC(C)(C)C4)C2)C1` [Example 1-55, 1-(6-(7,7-dimethyl-4-(((2S)-4-methyl-1-(1H-1,2,3-triazol-4-yl)-2-pentanyl)amino)-5,6,7,8-tetrahydro-2-quinazolinyl)-2,6-diazaspiro[3.4]octan-2-yl)-2-propen-1-one], the IC50 in assay [1] is 57 nM; in assay [2], 1270 nM; in assay [3], over 5000 nM.
Turning to `C=CC(=O)N1CC2(CCN(c3nc4c(c(N[C@H](Cc5noc(C)n5)CC(C)C)n3)CCC(C)(C)C4)C2)C1` [Example 1-44, 1-(6-(7,7-dimethyl-4-(((2S)-4-methyl-1-(5-methyl-1,2,4-oxadiazol-3-yl)-2-pentanyl)amino)-5,6,7,8-tetrahydro-2-quinazolinyl)-2,6-diazaspiro[3.4]octan-2-yl)-2-propen-1-one], the IC50 in assay [1] worked out at 380 nM; in assay [2] it was 316 nM; in assay [3], 21900 nM.
For `C=CC(=O)N1CC2(CCN(c3nc4c(c(N[C@H](CC5=NC(C)(C)C(=O)N5)CC(C)C)n3)CCCC4)C2)C1` [Example 1-12, 5,5-dimethyl-2-((2S)-4-methyl-2-((2-(2-(2-propenoyl)-2,6-diazaspiro[3.4]octan-6-yl)-5,6,7,8-tetrahydro-4-quinazolinyl)amino)pentyl)-3,5-dihydro-4H-imidazol-4-one] the same measures were 3930 nM, 10500 nM and over 25000 nM.
On to `C=CC(=O)N1CC2(CCN(c3nc(N[C@H](CC(=O)NC)CC(C)C)c4ncn(C)c4n3)C2)C1` [Example 1-17, (3S)-N,5-dimethyl-3-((9-methyl-2-(2-(2-propenoyl)-2,6-diazaspiro[3.4]octan-6-yl)-9H-purin-6-yl)amino)hexanamide], for which the values for the IC50 in assay [1], in assay [2] and in assay [3] were 8790 nM, 2460 nM and over 25000 nM, respectively.
Consider `C=CC(=O)N1CC2(CCN(c3nc4c(c(N[C@H](CC(=O)NC)CC(C)C)n3)CCC(C)(C)C4)C2)C1` [Example 1-29, (3S)-3-((7,7-dimethyl-2-(2-(2-propenoyl)-2,6-diazaspiro[3.4]octan-6-yl)-5,6,7,8-tetrahydro-4-quinazolinyl)amino)-N,5-dimethylhexanamide], for which the figures for the IC50 in assay [2] and in assay [3] were 31 nM and over 25000 nM, respectively.
